Measured values: patent US8088806B2 (Achillion Pharmaceuticals, Inc., priority 2005, dated 2012)

The compounds below were run on HCV replicon (assay: Replicon based assay of HCV replication inhibition (NPT ELISA)). Conditions: Hepatitis C virus, Huh-7, 72 h, Table I; Huh-7 HCV replicon-containing cells, three days; read-out: Activity.
Format: cell-based, Hepatitis C virus
In short: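 Huh-7 cells carrying a bicistronic HCV replicon (neo, EMCV-IRES-driven NS3–NS5B) treated overnight after seeding with usually 6 concentrations, 10 to 0.03 micromolar, for three days at 37° C without G418. Replication read as NPT level by captured ELISA; matched-DMSO wells and interferon alpha as controls.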

With CCCCCOc1ccc(N(C)c2nc(C(=O)Nc3cccnc3)cs2)cc1C(F)(F)F [compound 162, 2-(N-(3-(trifluoromethyl)-4-(pentyloxy)phenyl)-N-methylamino)-N-(pyridin-3-yl)thiazole-4-carboxamide] as the compound, how does the EC50 read?
Its EC50 is greater than 10000 nM.

Which EC50 does the source give for Fc1ccc2nc(Nc3nc(-c4cccnc4)cs3)sc2c1 [compound 206, 6-fluoro-N-(4-(pyridin-3-yl)thiazol-2-yl)benzo[d]thiazol-2-amine] here?
Its EC50 is 1000 to 10000 nM.

How did the EC50 turn out when Clc1ccc(Nc2nc(-c3ccc(Cl)c(Cl)c3)cs2)cc1Cl [compound 48, N,4-bis(3,4-dichlorophenyl)thiazol-2-amine] was run?
The EC50 was less than 1000 nM.

For Clc1ccc(-c2csc(NC3=NN(c4ccccc4)CC3)n2)cc1 [compound 142, N-(4-(4-chlorophenyl)thiazol-2-yl)-4,5-dihydro-1-phenyl-1H-pyrazol-3-amine], which EC50 is on record?
The EC50 was greater than 10000 nM.

For CCCCCOc1ccc(Nc2nc(C(N)CC(C)C)cs2)cc1C(F)(F)F (centres unmarked) [compound 161, 4-(1-amino-3-methylbutyl)-N-(3-(trifluoromethyl)-4-(pentyloxy)phenyl)thiazol-2-amine], which EC50 is on record?
Its EC50 is 1000 to 10000 nM.

How did the EC50 turn out when CCCCCOc1ccc(Nc2nc(-c3ccc(N4CCCC4)cc3)cs2)cc1C(F)(F)F [compound 8, N-(3-(trifluoromethyl)-4-(pentyloxy)phenyl)-4-(4-(pyrrolidin-1-yl)phenyl)thiazol-2-amine] was run?
Its EC50 is less than 1000 nM.

Which EC50 does the source give for CCCCCOc1ccc(Nc2nc(-c3ccc(CC(=O)O)s3)cs2)cc1C(F)(F)F [compound 200, 2-(5-(2-(3-(trifluoromethyl)-4-(pentyloxy)phenylamino)thiazol-4-yl)thiophen-2-yl)acetic acid] here?
The EC50 was less than 1000 nM.

With Fc1ccc(-c2csc(Nc3ccc(Cl)c(Cl)c3)n2)c(F)c1 [compound 49, N-(3,4-dichlorophenyl)-4-(2,4-difluorophenyl)thiazol-2-amine] as the compound, how does the EC50 read?
The EC50 was less than 1000 nM.

With CCCCOC(=O)c1ccc(Nc2nc(-c3cccnc3)cs2)cc1 [compound 107, butyl 4-(4-(pyridin-3-yl)thiazol-2-ylamino)benzoate] as the compound, how does the EC50 read?
The EC50 was greater than 10000 nM.

CCCCCOc1ccc(Nc2nc(CN3CCNC(=O)C3)cs2)cc1C(F)(F)F [compound 216, 4-((2-(3-(trifluoromethyl)-4-(pentyloxy)phenylamino)thiazol-4-yl)methyl)piperazin-2-one] was tested. Which EC50 did it give?
The EC50 was less than 1000 nM.

How did the EC50 turn out when CCCCCOc1ccc(Nc2nc(C(=O)N(C)c3ccc(Cl)c(Cl)c3)cs2)cc1C(F)(F)F [compound 129, 2-(3-(trifluoromethyl)-4-(pentyloxy)phenylamino)-N-(3,4-dichlorophenyl)-N-methylthiazole-4-carboxamide] was run?
Its EC50 is greater than 10000 nM.

Same assay, conditions: Hepatitis C virus, Huh-7, 72 h, Table III; Huh-7 HCV replicon-containing cells, three days; read-out: Activity

CCCCCOc1ccc(Nc2nc(Cc3ccc(F)c(F)c3)cs2)cc1F [compound 610, 4-(3,4-difluorobenzyl)-N-(3-fluoro-4-(pentyloxy)phenyl)thiazol-2-amine] was tested. Which EC50 did it give?
Its EC50 is greater than 10000 nM.

Which EC50 does the source give for CCCCCCCCc1ccc(Nc2nc(-c3ccc(Cl)cc3)cs2)cc1 [compound 555, 4-(4-chlorophenyl)-N-(4-octylphenyl)thiazol-2-amine] here?
The EC50 was less than 1000 nM.

How did the EC50 turn out when CCCCCCCCN(C)c1ccc(Nc2nc(Cc3ccc(F)c(F)c3)cs2)cc1 [compound 612, N^1-(4-(3,4-difluorobenzyl)thiazol-2-yl)-N^4-methyl-N^4-octylbenzene-1,4-diamine] was run?
Its EC50 is greater than 10000 nM.

Which EC50 does the source give for CCCCCN(C)c1ccc(Nc2nc(Cc3ccc(F)c(F)c3)cs2)cc1C(F)(F)F [compound 611, N^4-(4-(3,4-difluorobenzyl)thiazol-2-yl)-2-(trifluoromethyl)-N^1-methyl-N^1-pentylbenzene-1,4-diamine] here?
The EC50 was greater than 10000 nM.

CCCCCN(C)c1ccc(Nc2nc(-c3ccc(F)nc3)cs2)cc1C(F)(F)F [compound 529, 2-(trifluoromethyl)-N4-(4-(6-fluoropyridin-3-yl)thiazol-2-yl)-N1-methyl-N1-pentylbenzene-1,4-diamine] was tested. Which EC50 did it give?
The EC50 was less than 1000 nM.

With CCCCCOc1ccc(Nc2nc(/C=C/c3ccc(OC)cc3)cs2)cc1C(F)(F)F [compound 600, 4-(4-methoxystyryl)-N-(3-(trifluoromethyl)-4-(pentyloxy)phenyl)thiazol-2-amine] as the compound, how does the EC50 read?
The EC50 was less than 1000 nM.

Same assay, conditions: Hepatitis C virus, replicon based assay of HCV replication inhibition; Table II; read-out: Activity

For CCCCCCCCOc1ccc(Nc2nc(-c3ccc(NC)nc3)cs2)cc1 [compound 463, 5-(2-(4-(octyloxy)phenylamino)thia-zol-4-yl)-N-meethylpyridin-2-amine], which EC50 is on record?
The EC50 was less than 1000 nM.

CC/C=C\CCCCOc1ccc(Nc2nc(-c3ccc(C)nc3)cs2)cc1C(F)(F)F [compound 481, N-(4-((Z)-oct-5-enyloxy)-3-(trifluoromethyl)phenyl)-4-(6-methylpyridin-3-yl)thiazol-2-amine] was tested. Which EC50 did it give?
The EC50 was less than 1000 nM.

Cc1sc(NC(=O)c2ccccc2)nc1-c1ccc(OCC(=O)O)cc1 [compound 340, 2-(4-(2-benzamido-5-methylthiazol-4-yl)phenoxy)acetic acid] was tested. Which EC50 did it give?
Its EC50 is greater than 10000 nM.

With CCOC(=O)c1ccc(Nc2nc(-c3ccc(CC(=O)O)cc3)c(C)s2)cc1 [compound 342, 2-(4-(2-(4-(ethoxycarbonyl)phenylamino)-5-methylthiazol-4-yl)phenyl)acetic acid] as the compound, how does the EC50 read?
Its EC50 is greater than 10000 nM.

How did the EC50 turn out when CCCCCCCOc1ccc(Nc2nc(-c3cccc(O)c3)cs2)cc1 [compound 435, 3-(2-(4-(heptyloxy)phenylamino)thia-zol-4-yl)phenol] was run?
The EC50 was less than 1000 nM.

With CCCCCCCCOc1ccc(Nc2nc(CN3CCCC(C(=O)O)C3)cs2)cc1 (centres unmarked) [compound 323, 1-((2-(4-(octyloxy)phenylamino)thia-zol-4-yl)methyl)piperidine-3-carboxylic acid] as the compound, how does the EC50 read?
The EC50 was 1000 to 10000 nM.

Which EC50 does the source give for CCCCCOc1ccc(Nc2nc(CN3CCCC(C)C3)cs2)cc1C(F)(F)F (centres unmarked) [compound 276, 4-((3-methylpiperidin-1-yl)methyl)-N-(4-(pentyloxy)-3-(trifluoromethyl)phenyl)thia-zol-2-amine] here?
Its EC50 is less than 1000 nM.

For COc1ccc(CNc2nc(-c3ccc(OC)cc3)c(-c3ccc(OC)cc3)s2)cc1 [compound 336, N-(4-methoxybenzyl)-4,5-bis(4-methoxypheenyl)thiazol-2-amine], which EC50 is on record?
Its EC50 is greater than 10000 nM.

With CCCCCCCOc1ccc(Nc2nc(-c3ccccc3OC)cs2)cc1 [compound 375, N-(4-(heptyloxy)phenyl)-4-(2-methoxyphenyl)thiazol-2-amine] as the compound, how does the EC50 read?
Its EC50 is less than 1000 nM.

Which EC50 does the source give for Cc1sc(Nc2ccc(OCC3CC3)c(C(F)(F)F)c2)nc1-c1ccc(CC(=O)O)cc1 [compound 258, 2-(4-(2-(4-(cyclopropylmethoxy)-3-(trifluoromethyl)phenyl-amino)-5-methylthiazol-4-yl)phenyl)acetic acid] here?
Its EC50 is less than 1000 nM.

How did the EC50 turn out when CCCCCOc1ccc(Nc2nc(-c3csc(-c4cccnc4)n3)cs2)cc1C(F)(F)F [compound 298, N-(4-(pentyloxy)-3-(trifluoromethyl)phenyl)-4-(2-(pyridin-3-yl)thiazol-4-yl)thiazol-2-amine] was run?
The EC50 was less than 1000 nM.

For CCCCCOc1ccc(Nc2nc(-c3nc4ccccc4s3)cs2)cc1C(F)(F)F [compound 412, 4-(benzo[d]thiazol-2-yl)-N-(3-(trifluoromethyl)-4-(pentyloxy)phenyl)thiazol-2-amine], which EC50 is on record?
The EC50 was less than 1000 nM.

Same assay, conditions: Hepatitis C virus, replicon based assay of HCV replication inhibition; Table IV; read-out: Activity

CCCCCCCCS(=O)(=O)c1ccc(Nc2nc(-c3cccnc3)cs2)cc1C(F)(F)F [compound 952, N-(3-(trifluoromethyl)-4-(octylsulfonyl)phenyl)-4-(pyridin-3-yl)thiazol-2-amine] was tested. Which EC50 did it give?
The EC50 was less than 1000 nM.

With c1cncc(-c2csc(Nc3nc4ccccc4[nH]3)n2)c1 [compound 791, N-(4-(pyridin-3-yl)thiazol-2-yl)-1H-benzo[d]imidazol-2-amine] as the compound, how does the EC50 read?
Its EC50 is greater than 10000 nM.

For OCCc1ccc(-c2csc(Nc3ccc(OCC4CCCCC4)c(F)c3)n2)cc1 [compound 724, 2-(4-(2-(4-(cyclohexylmethoxy)-3-fluorophenylamino)thiazol-4-yl)phenyl)ethanol], which EC50 is on record?
The EC50 was 1000 to 10000 nM.

How did the EC50 turn out when c1cncc(-c2csc(Nc3cc(-c4cccs4)n[nH]3)n2)c1 [compound 746, N-(4-(pyridin-3-yl)thiazol-2-yl)-3-(thiophen-2-yl)-1H-pyrazol-5-amine] was run?
Its EC50 is greater than 10000 nM.

Which EC50 does the source give for COc1ncc(-c2csc(Nc3ccc(N4CCC5CCCCC5C4)c(C(F)(F)F)c3)n2)cn1 (centres unmarked) [compound 781, N-(3-(trifluoromethyl)-4-(octahydroisoquinolin-2(1H)-yl)phenyl)-4-(2-methoxypyrimidin-5-yl)thiazol-2-amine] here?
The EC50 was less than 1000 nM.

For Cc1sc(Nc2ccc(OCCCC3CCCC3)c(C(F)(F)F)c2)nc1-c1cccnc1 [compound 837, N-(4-(3-cyclopentylpropoxy)-3-(trifluoromethyl)phenyl)-5-methyl-4-(pyridin-3-yl)thiazol-2-amine], which EC50 is on record?
The EC50 was less than 1000 nM.

Which EC50 does the source give for CCCCCCCCOc1ccc(Nc2nc(-c3cccnc3)c(F)s2)cc1C(F)(F)F [compound 914, 5-fluoro-N-(3-(trifluoromethyl)-4-(octyloxy)phenyl)-4-(pyridin-3-yl)thiazol-2-amine] here?
The EC50 was less than 1000 nM.

Fc1ccc(Nc2nc(-c3cccnc3)cs2)cc1C(F)(F)F [compound 875, N-(4-fluoro-3-(trifluoromethyl)phenyl)-4-(pyridin-3-yl)thiazol-2-amine] was tested. Which EC50 did it give?
The EC50 was 1000 to 10000 nM.

How did the EC50 turn out when CCCCOC(=O)c1n[nH]c(Nc2nc(-c3cccnc3)cs2)n1 [compound 795, butyl 5-(4-(pyridin-3-yl)thiazol-2-ylamino)-1H-1,2,4-triazole-3-carboxylate] was run?
The EC50 was greater than 10000 nM.

For FC(F)(F)c1ccc(-c2csc(Nc3ccc(OCC4CCCCC4)c(C(F)(F)F)c3)n2)nc1 [compound 766, N-(4-(cyclohexylmethoxy)-3-(trifluoromethyl)phenyl)-4-(5-(trifluoromethyl)pyridin-2-yl)thiazol-2-amine], which EC50 is on record?
The EC50 was less than 1000 nM.

How did the EC50 turn out when Cc1ccc(Oc2ccc(Nc3nc(-c4cccnc4)cs3)cc2)cc1 [compound 897, N-(4-(p-tolyloxy)phenyl)-4-(pyridin-3-yl)thiazol-2-amine] was run?
Its EC50 is less than 1000 nM.

[2H]c1ccc2nc(-c3csc(Nc4ccc(OCC5CCCCC5)c(C(F)(F)F)c4)n3)ccc2n1 [compound 762, N-(4-(cyclohexylmethoxy)-3-(trifluoromethyl)phenyl)-4-(2-deuterated-1,5-naphthyridin-6-yl)thiazol-2-amine] was tested. Which EC50 did it give?
Its EC50 is 1000 to 10000 nM.
